Test results from article PMC9386018, “A lymphatic-absorbed multi-targeted kinase inhibitor for myelofibrosis therapy” (Nature Communications, 2022).
Several values for one entry are separate records, joined by “and”; a condition that tells them apart may be missing. Equal values may be shown once.

Assays:
[1] = molecular target: PI3Kγ (Homo sapiens, UniProt P48736); experiment: Target kinase 10-point inhibition assay, PI3Kγ; type: biochemical; details: PI3K gamma, replicates
Experimental: (§1) Quantitation of kinase inhibition was carried out by Life Technologies (Madison, WI) using the SelectScreen profiling platforms Z’-LYTE^TM and Adapta^TM. Single-point broad panel kinome screening was performed at 2.5 µM LP-182 against all kinases within the Z’-LYTE^TM and Adapta^TM assays (321 kinase isoforms, holoenzymes, or mutant variants). The average percent kinase inhibition from replicate data was ranked low to high, converted to a compatible identifier format, then input into Coral Human Kinome Visualization software for presentation analysis. […] Scaling of evolutionary distance for PI kinases is only relative and is based on literature analysis[62],[63]. Average percent kinome inhibition values from replicate data are supplied in Source Data file. […]. Corrected data was normalized to vehicle treated control values, and dose response percent kinase activity was analyzed by non-linear regression for determination of IC50 values.

[2] = molecular target: mTOR (Homo sapiens, UniProt P42345); experiment: Target kinase 10-point inhibition assay, mTOR; type: biochemical; details: replicates
Chain of mTOR (P42345 1360-2549 limits assumed): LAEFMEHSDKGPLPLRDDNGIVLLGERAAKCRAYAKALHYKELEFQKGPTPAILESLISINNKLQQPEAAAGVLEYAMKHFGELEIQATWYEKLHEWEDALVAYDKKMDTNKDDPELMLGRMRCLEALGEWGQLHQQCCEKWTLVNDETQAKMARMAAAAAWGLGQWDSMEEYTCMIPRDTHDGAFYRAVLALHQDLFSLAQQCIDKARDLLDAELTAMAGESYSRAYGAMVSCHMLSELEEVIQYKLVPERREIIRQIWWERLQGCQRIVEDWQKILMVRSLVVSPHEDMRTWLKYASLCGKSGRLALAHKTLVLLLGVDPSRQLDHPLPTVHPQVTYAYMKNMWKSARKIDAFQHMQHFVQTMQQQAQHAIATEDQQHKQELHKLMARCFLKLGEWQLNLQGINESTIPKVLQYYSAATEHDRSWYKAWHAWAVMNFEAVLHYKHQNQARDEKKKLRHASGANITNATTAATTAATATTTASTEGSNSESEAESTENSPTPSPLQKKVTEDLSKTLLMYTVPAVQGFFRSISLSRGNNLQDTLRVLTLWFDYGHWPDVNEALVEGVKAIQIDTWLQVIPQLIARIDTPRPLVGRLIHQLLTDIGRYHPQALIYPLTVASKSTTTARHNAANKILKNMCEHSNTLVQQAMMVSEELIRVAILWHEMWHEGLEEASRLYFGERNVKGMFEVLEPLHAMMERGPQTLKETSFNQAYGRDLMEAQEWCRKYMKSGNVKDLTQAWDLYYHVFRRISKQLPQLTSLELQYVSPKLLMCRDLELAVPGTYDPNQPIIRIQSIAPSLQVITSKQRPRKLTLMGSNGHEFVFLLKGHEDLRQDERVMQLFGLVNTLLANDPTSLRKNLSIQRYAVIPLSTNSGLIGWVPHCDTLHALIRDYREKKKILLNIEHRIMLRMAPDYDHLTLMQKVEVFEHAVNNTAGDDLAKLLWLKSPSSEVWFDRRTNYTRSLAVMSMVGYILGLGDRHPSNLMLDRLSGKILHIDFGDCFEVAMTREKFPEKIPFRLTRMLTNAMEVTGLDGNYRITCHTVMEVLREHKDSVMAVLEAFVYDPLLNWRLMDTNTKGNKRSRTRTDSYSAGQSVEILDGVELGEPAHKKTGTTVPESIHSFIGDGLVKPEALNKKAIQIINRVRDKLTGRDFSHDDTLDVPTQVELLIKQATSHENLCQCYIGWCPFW
Experimental: as §1

[3] = molecular target: T1, Target kinase isoforms (PI3K, mTOR, RAF, MEK) (Homo sapiens, UniProt O00329); experiment: Target kinase isoforms 10-point IC50 determination (Supplementary Fig. 7); type: biochemical; details: PI3K delta
T1 sequence (O00329 1-1044): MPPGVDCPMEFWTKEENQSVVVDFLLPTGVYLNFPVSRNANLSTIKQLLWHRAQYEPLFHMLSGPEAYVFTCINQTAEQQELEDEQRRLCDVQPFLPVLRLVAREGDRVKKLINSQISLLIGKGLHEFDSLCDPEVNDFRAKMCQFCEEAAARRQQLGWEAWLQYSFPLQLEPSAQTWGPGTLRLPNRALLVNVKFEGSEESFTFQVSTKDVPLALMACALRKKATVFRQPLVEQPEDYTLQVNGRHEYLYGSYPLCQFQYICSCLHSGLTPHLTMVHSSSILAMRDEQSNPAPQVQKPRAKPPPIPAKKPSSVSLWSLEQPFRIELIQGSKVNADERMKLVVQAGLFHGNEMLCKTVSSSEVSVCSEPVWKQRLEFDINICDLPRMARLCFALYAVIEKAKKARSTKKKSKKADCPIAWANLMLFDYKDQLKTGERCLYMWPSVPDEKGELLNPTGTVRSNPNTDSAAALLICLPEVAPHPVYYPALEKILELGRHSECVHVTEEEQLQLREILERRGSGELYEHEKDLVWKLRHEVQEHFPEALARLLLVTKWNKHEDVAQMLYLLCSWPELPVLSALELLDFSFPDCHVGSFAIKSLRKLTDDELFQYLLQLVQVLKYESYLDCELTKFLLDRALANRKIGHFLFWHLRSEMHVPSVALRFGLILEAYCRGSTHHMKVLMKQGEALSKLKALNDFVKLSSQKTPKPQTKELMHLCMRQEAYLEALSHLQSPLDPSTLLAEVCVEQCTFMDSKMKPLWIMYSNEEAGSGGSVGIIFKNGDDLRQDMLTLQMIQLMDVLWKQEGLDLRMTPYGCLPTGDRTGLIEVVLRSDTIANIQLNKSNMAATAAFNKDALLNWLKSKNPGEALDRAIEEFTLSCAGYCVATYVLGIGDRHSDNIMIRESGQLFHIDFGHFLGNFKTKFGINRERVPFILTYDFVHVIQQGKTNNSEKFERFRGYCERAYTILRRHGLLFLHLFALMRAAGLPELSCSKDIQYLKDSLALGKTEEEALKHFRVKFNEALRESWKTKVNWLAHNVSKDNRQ
Method in brief: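 Kinase activity across a 10-point dose series was corrected and normalized to vehicle-treated controls. IC50 values were derived by non-linear regression of percent activity. Kinome-wide percent inhibition was averaged over replicates.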

[4] = test system: SET-2 cells; experiment: SET-2 proliferation assay (CellTiter-Fluor); type: cell-based, human; details: 72 h
Experimental: Viable cells were counted by CellTiter-Fluor Assay (Promega) according to manufacturer’s protocol, and all fluorescence values were corrected by a no-cell control. […] Caspase activity was measured by Caspase-Glo 3/7 assay (Promega) according to the manufacturer’s protocol, and all luminescence values were corrected by a no-cell control. Dose response proliferation and Caspase activation data was normalized to vehicle treated control cells and analyzed by non-linear regression for determination of IC50 values. Data was generated from n = 3 independent experiments performed in replicate.

[5] = test system: Caspase 3/7 activity in SET-2 cells; experiment: SET-2 Caspase activation assay (Caspase-Glo 3/7); type: cell-based, human; details: 48 h; for Relative Caspase activation: normalized to vehicle, replicates
Experimental: Viable cells were counted by CellTiter-Fluor Assay (Promega) according to manufacturer’s protocol, and all fluorescence values were corrected by a no-cell control. For Caspase activation assays, SET-2 cells were cultured for 48 h at 10^6 cells mL^−1 with various concentration of LP-182 or vehicle (DMSO). Caspase activity was measured by Caspase-Glo 3/7 assay (Promega) according to the manufacturer’s protocol, and all luminescence values were corrected by a no-cell control. Dose response proliferation and Caspase activation data was normalized to vehicle treated control cells and analyzed by non-linear regression for determination of IC50 values. Data was generated from n = 3 independent experiments performed in replicate.

Chain of PI3Kγ (P48736 whole entry, canonical isoform): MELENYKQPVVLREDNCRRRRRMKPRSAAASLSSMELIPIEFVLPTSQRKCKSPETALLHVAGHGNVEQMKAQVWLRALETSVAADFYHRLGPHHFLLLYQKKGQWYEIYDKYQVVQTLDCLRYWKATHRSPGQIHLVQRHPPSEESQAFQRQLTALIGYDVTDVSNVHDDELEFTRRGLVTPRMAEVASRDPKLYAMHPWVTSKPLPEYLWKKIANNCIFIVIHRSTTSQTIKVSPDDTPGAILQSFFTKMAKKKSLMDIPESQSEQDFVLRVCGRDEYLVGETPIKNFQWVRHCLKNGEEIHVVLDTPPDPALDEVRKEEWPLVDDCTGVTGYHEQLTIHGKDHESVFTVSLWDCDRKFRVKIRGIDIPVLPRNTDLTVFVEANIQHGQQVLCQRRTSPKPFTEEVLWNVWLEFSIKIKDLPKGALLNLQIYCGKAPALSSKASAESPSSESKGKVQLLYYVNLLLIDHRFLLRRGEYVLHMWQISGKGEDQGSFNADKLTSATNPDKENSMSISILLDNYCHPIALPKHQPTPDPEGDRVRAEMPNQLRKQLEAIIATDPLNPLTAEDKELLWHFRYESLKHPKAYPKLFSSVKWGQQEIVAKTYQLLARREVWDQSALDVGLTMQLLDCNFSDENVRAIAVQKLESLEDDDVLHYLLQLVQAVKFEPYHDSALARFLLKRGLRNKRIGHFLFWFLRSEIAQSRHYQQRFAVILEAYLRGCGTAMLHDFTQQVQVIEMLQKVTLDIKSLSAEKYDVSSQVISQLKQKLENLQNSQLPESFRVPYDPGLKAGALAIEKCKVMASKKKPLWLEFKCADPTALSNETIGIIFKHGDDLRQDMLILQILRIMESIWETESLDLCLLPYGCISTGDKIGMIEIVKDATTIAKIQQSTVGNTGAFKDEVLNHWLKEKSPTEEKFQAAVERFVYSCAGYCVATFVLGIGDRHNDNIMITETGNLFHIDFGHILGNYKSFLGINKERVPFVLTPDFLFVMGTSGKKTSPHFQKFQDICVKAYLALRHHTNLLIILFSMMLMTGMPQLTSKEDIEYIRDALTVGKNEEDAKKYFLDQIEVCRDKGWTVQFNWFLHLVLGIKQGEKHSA

`O=C(NOCCOCCOCCOCCC(=O)N1CCN(c2cnc3ccc(-c4cnc(Cl)c(NS(=O)(=O)c5ccc(F)cc5)c4)cc3n2)CC1)c1ccc(F)c(F)c1Nc1ccc(I)cc1F` [LP-182, N-(2-(2-(2-(3-(4-(7-(6-chloro-5-((4-fluorophenyl)sulfonamido)pyridin-3-yl)quinoxalin-2-yl)piperazin-1-yl)-3-oxopropoxy)ethoxy)ethoxy)ethoxy)-3,4-difluoro-2-((2-fluoro-4-iodophenyl)amino)benzamide] was tested, and the “Kinase Activity (%)” value ([1]; 0.495 nM, 0.000495 µM) was 106% and 101% and 126% and 100% and 96% and 89% and 105% and 98%, the “Kinase Activity (%)” value ([1]; 1.52 nM, 0.00152 µM) was 108% and 97% and 115% and 123% and 99% (2×) and 105% and 90% and 88% and 93% and the “Kinase Activity (%)” value ([1]; 4.57 nM, 0.00457 µM) was 89% and 94% (2×) and 106% and 98% and 93% and 87% and 82% and 77% and 92%. The “Kinase Activity (%)” value ([1]; 41.2 nM, 0.0412 µM) was 50% (2×) and 48% and 43% and 55% and 47% and 37% and 30% and 31% and 32%, the activity at 0.123 µM ([1]; 123 nM) was 20% and the “Kinase Activity (%)” value ([1]; 123 nM, 0.123 µM) was 21% (3×) and 25% and 22% and 19% and 16% (2×) and 13%. The activity at […] ([1]; 370 nM) was 6%, the “Kinase Activity (%)” value ([1]; 1110 nM, 1.11 µM) was 1% (4×) and 4% and 0% and 2% (2×) and 3% (2×) and the “Kinase Activity (%)” value ([1]; 3330 nM, 3.33 µM) was 0% (9×) and 1%. For the same compound, the “Kinase Activity (%)” value ([1]; 10000 nM, 10 µM) was 4% and 0% (8×) and 2%, the activity at 0.000495 µM ([2]; 0.495 nM) was 95% and the “Kinase Activity (%)” value ([2]; 0.495 nM, 0.000495 µM) was 99% and 98% and 101% and 94% and 96%. For the same compound, the activity at 0.00152 µM ([2]; 1.52 nM) was 97%, the “Kinase Activity (%)” value ([2]; 1.52 nM, 0.00152 µM) was 99% and 100% and 94% (2×) and the activity at 0.00457 µM ([2]; 4.57 nM) was 91%. The “Kinase Activity (%)” value ([2]; 4.57 nM, 0.00457 µM) was 92% and 94% and 87% and 88%, the activity at 0.0412 µM ([2]; 41.2 nM) was 52% and the “Kinase Activity (%)” value ([2]; 41.2 nM, 0.0412 µM) was 63% and 57% (2×) and 47% (2×). The activity at 0.123 µM ([2]; 123 nM) was 29%, the “Kinase Activity (%)” value ([2]; 123 nM, 0.123 µM) was 30% (2×) and 32% and 31% and the activity at […] ([2]; 370 nM) was 13%. The “Kinase Activity (%)” value ([2]; 1110 nM, 1.11 µM) was 4% and 3% (2×) and 5% and 1% and 2%, the “Kinase Activity (%)” value ([2]; 3330 nM, 3.33 µM) was 0% (4×) and -1% and -2% and the “Kinase Activity (%)” value ([2]; 10000 nM, 10 µM) was 2% and -1% (4×) and 1%. The “Kinase Activity (%) PI3K delta” value ([3]; concentration 0.0187 nM, 18.7 pM) was 95% and 92% and 102% and 111% and 107%, the “Kinase Activity (%) PI3K delta” value ([3]; concentration 0.0562 nM, 56.2 pM) was 105% and 92% and 107% and 113% and 96% and the activity at 0.000495 µM ([3]; concentration 0.495 nM) was 83%. For the same compound, the activity at 0.00152 µM ([3]; concentration 1.52 nM) was 71%, the “Kinase Activity (%) PI3K delta” value ([3]; concentration 4.57 nM, 0.00457 µM) was 44% and the “Kinase Activity (%) PI3K delta” value ([3]; concentration 1110 nM, 1.11 µM) was 6% and 2% and 7% and 4%. For the same compound, the activity at 3.33 µM ([3]; concentration 3330 nM) was 5%, the “Kinase Activity (%) PI3K delta” value ([3]; concentration 3330 nM, 3.33 µM) was 6% and the “Kinase Activity (%) PI3K delta” value ([3]; concentration 10000 nM, 10 µM) was 6% and 8% and 0% and 10% and 7%. The “Growth (%)” value ([4]; 0.15625 µM, replicates (Fig. 2d)) was 82.3145% and 74.8007% and 92.2424% and 95.23%, the “Growth (%)” value ([4]; 0.3125 µM, replicates (Fig. 2d)) was 82.5275% and 93.6976% and 99.8925% and 94.4152% and 100.311% and 101.419% and the “Growth (%)” value ([4]; 0.625 µM, replicates (Fig. 2d)) was 75.7591% and 84.1959% and 99.0777% and 114.242% and 99.4809% and 107.316%. The “Growth (%)” value ([4]; LP-182 0.625 µM, replicates) was 94.49% and 102.748% and 105.532% and 109.611% and 111.9% and 115.3% and 97.84% and 53.1792% and 80% and 77.2254% and 41.1561% and 108.317%, the “Growth (%)” value ([4]; LP-182 5 µM, replicates) was 88.52% and 52.137% and 67.274% and 67.1508% and 90.41% and 85.13% and 85.23% and 51.3295% and 50.867% (2×) and 75.3757% and 52.71% and the “Growth (%)” value ([4]; LP-182 10 µM, replicates) was 67.22% and 40.3515% and 41.5713% and 43.4811% and 65.18% and 66.4% and 66.22% and 0% and 7.399% and 24.9711% (2×) and 44.7503%. For the same compound, the “Growth (%)” value ([4]; LP-182 20 µM, replicates) was 33.48% and 38.226% and 25.5964% and 32.3363% and 26.13% and 25.92% and 25.14% and 0% (4×) and 25.7197%, the “Growth (%)” value ([4]; LP-182 40 µM, replicates) was 13.5% and 29.145% and 27.7897% and 24.9557% and 14.69% and 13.53% and 12.78% and 0% (4×) and 22.7255% and the IC50 ([4]; Homo sapiens, read-out: IC50, inhibition of cellular proliferation) was 7.6 ± 0.82 µM. The “apoptotic cell death (Caspase activation)” value [5] was “initiated apoptotic cell death”, the “Relative Caspase activation” value ([5]; LP-182 5 µM) was 1.094 and 1.105 and 1.123 and 1.124 and 1.108 and 1.081 and the “Relative Caspase activation” value ([5]; LP-182 10 µM) was 1.411 and 1.334 and 1.453 and 1.372 and 1.41 and 1.477. The “Relative Caspase activation” value ([5]; LP-182 20 µM) was 1.934 and 1.9571 and 1.914 and 1.975 and 2.004 and 1.977 and the “Relative Caspase activation” value ([5]; LP-182 40 µM) was 2.054 and 1.793 and 2.072 and 2.115 and 2.193 and 2.206.
